We go through five compounds from patent US7910579B2, “Benzoxazole derivatives” (Tohoku University, priority 2006, dated 2011).

In series [1] the target is T1, amyloid β protein in the brain section of an Alzheimer disease patient (Homo sapiens, UniProt P05067).
T1 construct: from tissue; host or cells: paraffin-embedded temporal lobe and hippocampus of Alzheimer disease patients
Kind of series: Staining test on a brain section of an Alzheimer disease patient: amyloid β protein. It counts as binding. The settings on record: 100 μM solution in 50% ethanol, 10 minutes, paraffin brain section. In outline: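 Deparaffinized 6 or 8 μm temporal lobe/hippocampus sections from Alzheimer and normal senile brains, autofluorescence quenched with KMnO4 then K2S2O5/oxalic acid, stained 10 min with 100 μM compound in 50% ethanol and imaged by fluorescence microscopy. Amyloid β immunostaining with 6F/3D antibody and ABC/DAB detection used for comparison.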

A short description of the next series: Acute Toxicity Test. The settings on record: Crj:CD1 male mice, tail vein, observed for 7 days. It counts as in vivo.
For series [2], the target named is T2, Tg mouse intracerebral amyloid plaque (Homo sapiens, UniProt P05067).
T2 construct: from tissue; host or cells: brain of Tg mice (Tg2576 or APPswe2576/Tau JNPL3) after intravenous dosing
Briefly: Investigation of transgenic (Tg) mice with amyloid deposition in their brain (fluorescence microscopy of brain sections after intravenous administration). The settings on record: Tg2576 mouse, 4 mg/kg intravenous; for Passage through the blood-brain barrier and binding to Tg mouse intracerebral amyloid plaque: 1 hour after administration. In kind it is in vivo.

T1 sequence (P05067 672-713 limits assumed): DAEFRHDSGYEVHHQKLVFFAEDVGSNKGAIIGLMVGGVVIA
T2 sequence (P05067 672-713 limits assumed): as above

As to `FCCOc1ccc2nc(/C=C/c3cnc(N4CCOCC4)s3)oc2c1` [THK-525, 6-(2-fluoro-ethoxy)-2-[2-(2-morpholin-4-yl-thiazol-5-yl)-vinyl]-benzoxazole], the “Binding to (staining of) amyloid β protein in the brain section of an Alzheimer disease patient” value (“Binding … of an Alzheimer disease patient” below) in series [1] is “bound to the amyloid β protein”. Further, the “Maximum Permissible Dose (mg/kg, intravenous administration)” value (from here on “Maximum Permissible Dose”) in the series “Acute Toxicity Test” is reported as “≧10 mg/kg”. For the same compound, the “Passage through the blood-brain barrier and binding to Tg mouse intracerebral amyloid plaque” value in series [2] is “passed through the blood-brain barrier, and bound to the Tg mouse intracerebral amyloid plaque”.
Turning to `OCC(CF)Oc1ccc2nc(/C=C/c3cnc(N4CCOCC4)s3)oc2c1` (stereo not shown) [THK-702, (E)-2-[2-(2-morpholinothiazol-5-yl)ethenyl]-6-[(1-fluoromethyl-2-hydroxy)ethoxy]-benzoxazole], the “Binding … of an Alzheimer disease patient” value in series [1] was “white space arrow indicates amyloid β protein”. The “Maximum Permissible Dose” value in “Acute Toxicity Test” is listed as “≧10 mg/kg”. In series [2], the “Passage through the blood-brain barrier and binding to Tg mouse intracerebral amyloid plaque” value was “passed through the blood-brain barrier, and bound to the amyloid plaque of the Tg mouse”. Also, the “Correspondence of the binding site to the anti-Aβ antibody-stained site of the same section” value in series [2] (antibody 4G8) is “completely corresponded to the anti-Aβ antibody-stained site”.
For `OCC(CF)Oc1ccc2nc(/C=C/c3cnc(N4CCCC4)s3)oc2c1` (stereo not shown) [THK-752, (E)-6-[(1-fluoromethyl-2-hydroxy)ethoxy]-2-[2-[2-(pyrrolidin-1-yl)-thiazol-5-yl]ethenyl]benzoxazole], the “Binding … of an Alzheimer disease patient” value in series [1] was “white space arrow indicates amyloid β protein”. Besides, the “Maximum Permissible Dose” value in the series “Acute Toxicity Test” is on record as “≧10 mg/kg”.
On the same counts, the results for `CNc1ncc(/C=C/c2nc3ccc(OC(CO)CF)cc3o2)s1` (stereo not shown) [THK-761, (E)-6-[(1-fluoromethyl-2-hydroxy)ethoxy]-2-[2-[2-methylaminothiazol-5-yl]ethenyl]-benzoxazole] are “white space arrow indicates amyloid β protein” and “≧10 mg/kg”.
With `CN(C)c1ncc(/C=C/c2nc3ccc(OC(CO)CF)cc3o2)s1` (stereo not shown) [THK-763, (E)-6-[(1-fluoromethyl-2-hydroxy)ethoxy]-2-[2-[2-dimethylamino-thiazol-5-yl]ethenyl]benzoxazole], in series [1], the “Binding … of an Alzheimer disease patient” value is “white space arrow indicates amyloid β protein”. Further, in “Acute Toxicity Test”, the “Maximum Permissible Dose” value is reported as “≧10 mg/kg”.
